Results as given in patent US20220315572A1, “SUBSTITUTED CYANOPYRROLIDINES WITH ACTIVITY AS USP30 INHIBITORS” (MISSION THERAPEUTICS LIMITED, priority 2019, published 2022).
Where two headings read alike, the source gives them in different places.

Key:
[1] = test system: USP2, USP10, USP16, USP21, USP22, USP25, USP28, USP35, USP46; test: DUB biochemical IC50 assays, nine DUBs; settings: for fold more potent against USP30 than against the nine DUBs, minimum: lowest of USP2, USP10, USP16, USP21, USP22, USP25, USP28, USP35, USP46; for DUB selectivity preference for USP30 v 9 DUBs / IC50: range over the nine DUBs; for IC50: Ref. Ex. C excl. USP22, Ref. Ex. D excl. USP2, 46
Cathepsin V = Cathepsin V (Homo sapiens, UniProt O60911); test: Cathepsin IC50, cathepsin V; format: biochemical
Cathepsin V, sequence (O60911 114-334, species assumed): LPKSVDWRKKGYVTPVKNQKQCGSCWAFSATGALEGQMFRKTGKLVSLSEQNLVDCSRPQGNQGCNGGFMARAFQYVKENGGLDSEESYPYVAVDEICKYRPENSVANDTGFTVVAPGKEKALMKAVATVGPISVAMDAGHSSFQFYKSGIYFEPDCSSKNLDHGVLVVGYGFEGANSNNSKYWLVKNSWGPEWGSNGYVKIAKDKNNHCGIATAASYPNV

Cathepsin L = Cathepsin L (Homo sapiens, UniProt P07711); test: Cathepsin IC50, cathepsin L; format: biochemical
Cathepsin L, sequence (P07711 114-333, species assumed): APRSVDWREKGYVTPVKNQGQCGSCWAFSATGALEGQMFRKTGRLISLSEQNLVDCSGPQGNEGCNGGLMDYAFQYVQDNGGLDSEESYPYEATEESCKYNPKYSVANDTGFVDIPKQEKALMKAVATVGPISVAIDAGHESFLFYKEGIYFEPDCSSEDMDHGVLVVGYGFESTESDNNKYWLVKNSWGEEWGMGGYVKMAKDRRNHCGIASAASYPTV

Cathepsin K = biological target: T1, Cathepsin K (Homo sapiens, UniProt P43235); test: Cathepsin IC50, cathepsin K; format: biochemical
T1 sequence (P43235 115-329): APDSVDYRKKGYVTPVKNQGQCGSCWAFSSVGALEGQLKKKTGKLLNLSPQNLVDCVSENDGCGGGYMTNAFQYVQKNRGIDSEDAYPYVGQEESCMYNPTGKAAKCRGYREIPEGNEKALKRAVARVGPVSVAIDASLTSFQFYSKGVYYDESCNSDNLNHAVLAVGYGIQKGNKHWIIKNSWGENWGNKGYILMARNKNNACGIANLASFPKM

Cathepsins B, K, L, S, V = test: Cathepsin IC50, range over B, K, L, S, V; format: biochemical; settings: for Selectivity preference for USP30 v cathepsins: range over cathepsins B, S; for Selectivity preference for USP30 v cathepsins / fold more potent against USP30 than against the cathepsins, minimum: K, L; for IC50: range over the five cathepsins; for fold more potent against USP30 than against the cathepsins, minimum: lowest of cathepsins B, S and V
Cathepsin S = Cathepsin S (Homo sapiens, UniProt P25774); test: Cathepsin IC50, cathepsin S; format: biochemical
Cathepsin S, sequence (P25774 115-331, species assumed): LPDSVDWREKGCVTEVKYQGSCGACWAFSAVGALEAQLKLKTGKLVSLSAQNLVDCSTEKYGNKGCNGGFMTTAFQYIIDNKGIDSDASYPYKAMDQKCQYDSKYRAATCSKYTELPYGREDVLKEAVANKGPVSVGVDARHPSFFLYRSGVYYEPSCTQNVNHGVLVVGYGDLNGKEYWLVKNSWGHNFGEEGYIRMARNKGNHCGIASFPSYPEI

USP30 = biological target: T2, USP30 (Homo sapiens, UniProt Q70CQ3); test: USP30 biochemical IC50 assay (fluorescence polarisation)
T2 construct: purchased Boston Biochem E582
T2 sequence (Q70CQ3 57-517 limits assumed): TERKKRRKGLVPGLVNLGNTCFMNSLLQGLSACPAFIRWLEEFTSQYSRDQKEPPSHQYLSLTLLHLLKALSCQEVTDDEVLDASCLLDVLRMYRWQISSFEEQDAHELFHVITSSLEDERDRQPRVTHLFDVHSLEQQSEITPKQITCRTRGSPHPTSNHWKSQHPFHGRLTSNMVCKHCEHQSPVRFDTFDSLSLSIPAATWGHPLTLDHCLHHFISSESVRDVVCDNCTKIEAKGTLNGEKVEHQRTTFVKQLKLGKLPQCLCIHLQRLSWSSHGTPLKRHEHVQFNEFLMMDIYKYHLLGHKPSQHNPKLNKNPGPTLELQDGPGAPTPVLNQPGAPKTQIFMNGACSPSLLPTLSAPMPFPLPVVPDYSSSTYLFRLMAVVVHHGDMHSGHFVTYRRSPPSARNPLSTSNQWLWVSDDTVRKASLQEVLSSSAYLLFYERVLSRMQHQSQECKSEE
Procedure: Dilution plates were prepared at 21 times the final concentration (2100 μM for a final concentration of 100 μM) in 50% DMSO in a 96-well polypropylene V-bottom plate (Greiner #651201). A typical 8-point dilution series would be 100, 30, 10, 3, 1, 0.3, 0.1, 0.03 μM final. Reactions were performed in duplicate in black 384 well plates (small volume, Greiner 784076) in a final reaction volume of 21 μl. Either […] of 50% DMSO or diluted compound was added to the plate. USP30 (Boston Biochem #E582) was diluted in reaction buffer (40 mM Tris, pH 7.5, 0.005% Tween 20, 0.5 mg/ml BSA, 5 mM beta-mercaptoethanol) to achieve a final assay concentration of 4 nM, and 10 μl of diluted USP30 was added to the compound. Enzyme and compound were incubated for 30 min at room temp. Reactions were initiated by the addition of 50 nM of TAMRA labelled peptide linked to ubiquitin via an iso-peptide bond as fluorescence polarisation substrate. Reactions were read immediately after addition of substrate and following a 2-hour incubation at room temperature. Readings were performed on a Pherastar Plus (BMG Labtech). λ Excitation 540 nm; λ Emission 590 nm.

Cathepsin B = Cathepsin B (Homo sapiens, UniProt P07858); test: Cathepsin IC50, cathepsin B; format: biochemical
UCHL1 = biological target: T3, UCHL1 (Homo sapiens, UniProt P09936); test: DUB biochemical IC50 assay, UCHL1
T3 sequence (P09936 1-223): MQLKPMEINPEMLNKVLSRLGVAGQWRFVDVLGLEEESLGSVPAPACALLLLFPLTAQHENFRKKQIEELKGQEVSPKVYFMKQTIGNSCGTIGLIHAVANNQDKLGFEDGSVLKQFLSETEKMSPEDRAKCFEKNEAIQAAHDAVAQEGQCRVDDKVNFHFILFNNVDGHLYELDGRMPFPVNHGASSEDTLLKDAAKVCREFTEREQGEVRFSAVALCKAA

Endogenous USP30 = biological target: T4, Endogenous USP30 (Homo sapiens, UniProt Q70CQ3); test: USP30 endogenous cellular target engagement western blot assay (Cell TE WB); format: cell-based; settings: Hela cells stably overexpressing YFP-Parkin, 1 hour
T4 construct: USP30 endogenous cellular target engagement western blot (WB) assay; endogenous in cells; host or cells: HeLa stably overexpressing YFP-Parkin
T4 sequence (Q70CQ3 1-517): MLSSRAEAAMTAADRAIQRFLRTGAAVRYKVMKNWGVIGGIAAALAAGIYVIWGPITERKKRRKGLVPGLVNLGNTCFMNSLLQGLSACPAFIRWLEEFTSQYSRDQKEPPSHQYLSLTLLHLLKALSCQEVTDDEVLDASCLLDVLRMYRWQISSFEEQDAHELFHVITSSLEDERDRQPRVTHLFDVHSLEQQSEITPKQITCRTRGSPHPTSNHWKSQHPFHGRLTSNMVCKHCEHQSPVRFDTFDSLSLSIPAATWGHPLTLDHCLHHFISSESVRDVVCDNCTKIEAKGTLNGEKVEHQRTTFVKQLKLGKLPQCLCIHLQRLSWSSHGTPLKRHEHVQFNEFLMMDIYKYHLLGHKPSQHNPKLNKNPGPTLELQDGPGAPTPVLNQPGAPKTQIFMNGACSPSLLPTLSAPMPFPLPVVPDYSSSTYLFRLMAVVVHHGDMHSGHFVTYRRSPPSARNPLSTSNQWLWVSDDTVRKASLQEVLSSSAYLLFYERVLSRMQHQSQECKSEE
Procedure: Hela cells stably overexpressing YFP-Parkin were seeded into 6 well dishes. Once adhered, cells were treated with appropriate concentrations of test compounds or vehicle control for 1 hour at 37° C., 5% CO2. Whole cell lysates were prepared by scraping the cells into cold PBS, centrifuging and lysing in lysis buffer (50 mM Tris-base, pH 7.5, 50 mM NaCl, 1% NP-40/Igepal CA-630, 2 mM MgCl2, 10% Glycerol, 5 mM beta-mercaptoethanol, cOmplete mini tablets EDTA free (Roche), PhosStop tablets (Roche)) for 10 mins. The equivalent of 20 μg of protein from the cleared cell lysate was incubated with a final conc of 2.5 μM HA-Ahx-Ahx-Ub-VME probe at room temperature. The reaction was stopped by addition of 5×SDS sample loading buffer and proteins separated by SDS PAGE and western blotting. USP30 was detected using an anti-USP30 Sheep S746D antibody (MRC PPU Reagents and Services) and a rabbit anti sheep secondary IgG (H+L) horseradish peroxidase conjugated (Thermo #31480) and visualised using ECL reagent (GE #RPN2109) on a GE LAS4000 imager. Target engagement was measured by quantitation of the bands corresponding to USP30 and USP30 bound to the Ub-VME probe and expression of this proportion compared to vehicle treated control.
Cell TE WB: USP30 endogenous cellular target engagement western blot (WB) assay. Assays the activity of compounds against USP30 in cells using an irreversible activity probe to monitor USP30 activity.

[2] = Reference Examples, read-out: USP30 IC50

Row | SMILES | IC50 [1] | IC50 (Cathepsin V) | IC50 (Cathepsin L) | IC50 (Cathepsin K) | IC50 (Cathepsins B, K, L, S, V) | IC50 (Cathepsin S) | IC50 (USP30; [2]) | IC50 (Cathepsin B) | IC50 (UCHL1) | fold more potent against USP30 than UCHL1 (UCHL1) | IC50 (USP30; read-out: DUB IC50 (μM) USP30) | DUB selectivity preference for USP30 v UCHL1 (UCHL1) | IC50 (USP30; USP30 biochemical IC50 assay, exemplary compounds, read-out: IC50) | EC50 (Endogenous USP30) | fold more potent against USP30 than against the nine DUBs, minimum [1] | DUB selectivity preference for USP30 v 9 DUBs [1] | Selectivity preference for USP30 v cathepsins (Cathepsins B, K, L, S, V) | fold more potent against USP30 than against the cathepsins, minimum (Cathepsins B, K, L, S, V)
1 | COc1cccc(-c2cc(C(=O)N[C@@H]3CCN(C#N)C3)on2)c1 [A, reference compound] | 0.19 to 9.9 µM | 5.8 µM | 2.8 µM | 0.79 µM | 0.79 to 8.8 µM | 8.8 µM | 0.07 µM | 4.5 µM | – | – | – | – | – | – | 2.7 fold | 2.7-141 | 11-126 | –
2 | C[C@H]1CN(C#N)C[C@@H]1NC(=O)c1cnc(-c2ccccc2)s1 [C, reference compound] | 0.025 to 8.9 µM | 4 µM | 1.5 µM | 2.4 µM | 1.5 to 5.9 µM | 5.9 µM | 0.026 µM | 4.8 µM | – | – | – | – | – | – | 0.96 fold | 0.96-342 | 58-227 | 58 fold
3 | N#Cc1cccc(-c2ccn3c(C(=O)N[C@@H]4CCN(C#N)C4)cnc3c2)c1 [D] | 0.19 to 5.1 µM | 3 µM | 2.3 µM | – | 2.3 to 6.9 µM | 6.9 µM | 0.041 µM | – | – | – | – | – | – | – | 4.6 fold | 4.6-124 | 56-168 | 56 fold
4 | COC[C@@H]1C[C@@H](NC(=O)c2nnc(-c3cccc(C#N)c3)o2)CN1C#N [Example 2, N-((3R,5S)-1-Cyano-5-(methoxymethyl)pyrrolidin-3-yl)-5-(3-cyanophenyl)-1,3,4-oxadiazole-2-carboxamide] | ≥ 6.9 µM | > 300 µM | 32.8 µM | 113 µM | 32.8 to 300 µM | > 300 µM | – | > 300 µM | > 300 µM | – | – | 8100 | 0.037 µM | 89 nM | – | 186-8100 | 880-8100 | –
5 | CC1CC(C(=O)Nc2ncc(-c3ccccc3)s2)CN1C#N (stereo not drawn) [G, reference compound] | – | – | – | – | – | – | 4.4 µM | – | 6.8 µM | 1.5 fold | 4.4 µM | – | – | – | – | – | – | –

Continued, in another order:

Row | IC50 [1] | IC50 (Cathepsin V) | IC50 (Cathepsin L) | IC50 (Cathepsin K) | IC50 (Cathepsins B, K, L, S, V) | IC50 (Cathepsin S) | IC50 (USP30; [2]) | IC50 (Cathepsin B) | IC50 (UCHL1) | fold more potent against USP30 than UCHL1 (UCHL1) | IC50 (USP30; read-out: DUB IC50 (μM) USP30) | DUB selectivity preference for USP30 v UCHL1 (UCHL1) | IC50 (USP30; USP30 biochemical IC50 assay, exemplary compounds, read-out: IC50) | EC50 (Endogenous USP30) | SMILES | fold more potent against USP30 than against the nine DUBs, minimum [1] | DUB selectivity preference for USP30 v 9 DUBs [1] | Selectivity preference for USP30 v cathepsins (Cathepsins B, K, L, S, V) | fold more potent against USP30 than against the cathepsins, minimum (Cathepsins B, K, L, S, V)
6 | 0.35 to 10.2 µM | 4.2 µM | 0.79 µM | 1.1 µM | 0.79 to 4.2 µM | 2.3 µM | 0.044 µM | 2.9 µM | – | – | – | – | – | – | N#CN1CCC(NC(=O)c2cc(-c3cccc(Cl)c3)no2)C1 (stereo not drawn) [B, reference compound] | 8 fold | 8-232 | 18-95 | 18 fold
7 | – | – | 1 µM | 2.7 µM | 1 to 5.3 µM | – | 0.31 µM | 5.3 µM | 0.25 µM | 0.8 fold | 0.31 µM | – | – | – | N#CN1CC[C@H](C(=O)Nc2ncc(-c3ccccc3)s2)C1 [E, reference compound] | – | – | 3.2-17 | 3.2 fold
8 | – | 0.82 µM | 0.24 µM | 0.86 µM | 0.24 to 9.8 µM | 2.1 µM | 0.7 µM | 9.8 µM | 3.2 µM | 4.6 fold | – | 4.6 | – | – | N#CN1CCC(C(=O)Nc2nnc(-c3ccccc3)s2)C1 (stereo not drawn) [F, reference compound] | – | – | 0.34-14 | 0.34 fold
